Data reported in BindingDB's records for doi:10.1111/j.1476-5381.1996.tb15304.x (Smithkline Beecham Pharmaceuticals, 1996).

What was measured:
[1] = biological target: T1, 5-hydroxytryptamine receptor 2C (Rattus norvegicus, UniProt P08909)
T1 sequence (P08909 whole entry): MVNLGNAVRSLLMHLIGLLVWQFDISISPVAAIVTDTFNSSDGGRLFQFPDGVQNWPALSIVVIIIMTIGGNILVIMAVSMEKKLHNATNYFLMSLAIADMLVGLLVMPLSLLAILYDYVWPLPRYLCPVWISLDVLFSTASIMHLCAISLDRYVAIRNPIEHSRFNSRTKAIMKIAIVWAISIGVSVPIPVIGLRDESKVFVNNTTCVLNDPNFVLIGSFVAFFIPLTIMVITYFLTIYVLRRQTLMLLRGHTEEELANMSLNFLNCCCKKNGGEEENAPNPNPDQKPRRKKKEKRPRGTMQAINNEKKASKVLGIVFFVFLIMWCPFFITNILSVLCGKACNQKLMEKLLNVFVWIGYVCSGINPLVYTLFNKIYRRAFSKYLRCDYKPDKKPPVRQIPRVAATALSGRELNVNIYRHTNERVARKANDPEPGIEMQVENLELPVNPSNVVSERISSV

[2] = biological target: 5-hydroxytryptamine receptor 1E (Homo sapiens, UniProt P28566)
5-hydroxytryptamine receptor 1E, sequence (P28566 whole entry): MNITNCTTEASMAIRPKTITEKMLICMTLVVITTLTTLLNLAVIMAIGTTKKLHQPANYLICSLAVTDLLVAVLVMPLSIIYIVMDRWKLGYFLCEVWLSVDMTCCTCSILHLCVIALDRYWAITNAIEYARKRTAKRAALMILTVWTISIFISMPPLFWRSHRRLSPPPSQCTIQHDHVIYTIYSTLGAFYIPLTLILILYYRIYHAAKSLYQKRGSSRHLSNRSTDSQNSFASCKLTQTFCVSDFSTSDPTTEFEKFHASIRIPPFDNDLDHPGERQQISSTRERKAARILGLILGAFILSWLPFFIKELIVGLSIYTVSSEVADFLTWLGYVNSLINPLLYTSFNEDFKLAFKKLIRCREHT

D(2) dopamine receptor = D(2) dopamine receptor (Homo sapiens, UniProt P14416)
D(2) dopamine receptor, sequence (P14416 whole entry): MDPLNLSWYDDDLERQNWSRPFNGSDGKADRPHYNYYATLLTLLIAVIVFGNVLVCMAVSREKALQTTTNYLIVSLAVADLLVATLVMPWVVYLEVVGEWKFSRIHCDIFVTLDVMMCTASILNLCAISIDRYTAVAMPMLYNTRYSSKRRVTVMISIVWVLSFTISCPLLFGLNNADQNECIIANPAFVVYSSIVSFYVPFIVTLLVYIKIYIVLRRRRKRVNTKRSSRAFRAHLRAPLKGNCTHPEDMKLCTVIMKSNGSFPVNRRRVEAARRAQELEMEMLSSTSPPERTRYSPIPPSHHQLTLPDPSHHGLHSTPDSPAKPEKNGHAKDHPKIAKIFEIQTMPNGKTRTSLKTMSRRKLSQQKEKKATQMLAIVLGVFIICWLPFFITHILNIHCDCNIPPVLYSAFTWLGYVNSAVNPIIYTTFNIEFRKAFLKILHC

Histamine H2 receptor = Histamine H2 receptor (Mus musculus, UniProt P97292)
Histamine H2 receptor, sequence (P97292 whole entry): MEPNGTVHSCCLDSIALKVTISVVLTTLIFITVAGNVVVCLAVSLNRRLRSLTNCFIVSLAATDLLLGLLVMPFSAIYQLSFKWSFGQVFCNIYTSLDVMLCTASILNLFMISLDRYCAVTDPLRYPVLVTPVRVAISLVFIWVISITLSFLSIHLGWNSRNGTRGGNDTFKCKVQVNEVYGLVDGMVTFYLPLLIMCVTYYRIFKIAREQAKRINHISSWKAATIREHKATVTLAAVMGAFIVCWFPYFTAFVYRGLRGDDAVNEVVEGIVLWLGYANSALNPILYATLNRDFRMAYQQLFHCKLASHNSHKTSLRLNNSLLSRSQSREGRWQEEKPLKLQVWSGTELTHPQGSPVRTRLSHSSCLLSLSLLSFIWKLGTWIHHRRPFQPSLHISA

[3] = biological target: T2, Adrenergic alpha2 receptor (Mesocricetus auratus, UniProt Q60533)
T2 sequence (Q60533 whole entry): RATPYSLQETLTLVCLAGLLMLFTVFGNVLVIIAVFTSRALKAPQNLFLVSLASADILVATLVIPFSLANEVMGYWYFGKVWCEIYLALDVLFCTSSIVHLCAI

[4] = biological target: T3, 5-hydroxytryptamine receptor 3A (Rattus norvegicus, UniProt P35563)
T3 sequence (P35563 whole entry): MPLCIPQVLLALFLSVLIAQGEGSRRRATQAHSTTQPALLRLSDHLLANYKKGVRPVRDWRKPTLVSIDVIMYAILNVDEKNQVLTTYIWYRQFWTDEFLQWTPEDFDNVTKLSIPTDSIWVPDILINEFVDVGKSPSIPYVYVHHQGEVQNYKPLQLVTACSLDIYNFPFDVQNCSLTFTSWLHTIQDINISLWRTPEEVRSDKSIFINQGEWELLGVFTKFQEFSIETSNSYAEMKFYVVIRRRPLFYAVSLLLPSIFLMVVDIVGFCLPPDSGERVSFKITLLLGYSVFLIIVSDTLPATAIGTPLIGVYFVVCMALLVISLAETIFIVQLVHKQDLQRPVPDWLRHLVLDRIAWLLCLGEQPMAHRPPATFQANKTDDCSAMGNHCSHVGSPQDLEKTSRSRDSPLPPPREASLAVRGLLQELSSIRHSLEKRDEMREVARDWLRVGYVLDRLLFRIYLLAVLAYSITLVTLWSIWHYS

[5] = biological target: 5-hydroxytryptamine receptor 2A (Rattus norvegicus, UniProt P14842)
5-hydroxytryptamine receptor 2A, sequence (P14842 whole entry): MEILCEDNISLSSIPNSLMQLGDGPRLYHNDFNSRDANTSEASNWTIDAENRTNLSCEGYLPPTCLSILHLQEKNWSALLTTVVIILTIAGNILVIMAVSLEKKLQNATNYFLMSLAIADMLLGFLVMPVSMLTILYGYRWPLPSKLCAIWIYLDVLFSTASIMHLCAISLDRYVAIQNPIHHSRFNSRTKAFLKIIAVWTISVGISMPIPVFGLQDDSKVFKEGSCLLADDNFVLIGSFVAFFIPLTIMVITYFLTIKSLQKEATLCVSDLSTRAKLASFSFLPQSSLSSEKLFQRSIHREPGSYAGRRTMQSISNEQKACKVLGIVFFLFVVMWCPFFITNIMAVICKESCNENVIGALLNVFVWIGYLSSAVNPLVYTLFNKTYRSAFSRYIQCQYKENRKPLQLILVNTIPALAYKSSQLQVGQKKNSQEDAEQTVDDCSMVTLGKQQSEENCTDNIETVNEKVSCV

[6] = biological target: Beta-2 adrenergic receptor (Mus musculus, UniProt P18762)
Beta-2 adrenergic receptor, sequence (P18762 whole entry): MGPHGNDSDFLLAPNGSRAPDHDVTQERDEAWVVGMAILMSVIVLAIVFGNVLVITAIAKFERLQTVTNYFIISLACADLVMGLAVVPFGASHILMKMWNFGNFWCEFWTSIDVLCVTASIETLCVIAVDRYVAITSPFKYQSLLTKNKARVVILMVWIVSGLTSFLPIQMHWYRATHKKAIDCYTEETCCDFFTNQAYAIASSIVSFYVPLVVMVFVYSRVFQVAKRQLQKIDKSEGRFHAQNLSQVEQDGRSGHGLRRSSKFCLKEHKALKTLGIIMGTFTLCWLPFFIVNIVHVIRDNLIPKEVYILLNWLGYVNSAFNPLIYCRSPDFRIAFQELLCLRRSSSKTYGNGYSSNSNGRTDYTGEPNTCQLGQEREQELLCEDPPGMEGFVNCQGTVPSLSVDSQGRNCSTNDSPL

[7] = biological target: 5-hydroxytryptamine receptor 7 (Homo sapiens, UniProt P34969)
[8] = biological target: 5-hydroxytryptamine receptor 4 (Rattus norvegicus, UniProt Q62758)
5-hydroxytryptamine receptor 4, sequence (Q62758 whole entry): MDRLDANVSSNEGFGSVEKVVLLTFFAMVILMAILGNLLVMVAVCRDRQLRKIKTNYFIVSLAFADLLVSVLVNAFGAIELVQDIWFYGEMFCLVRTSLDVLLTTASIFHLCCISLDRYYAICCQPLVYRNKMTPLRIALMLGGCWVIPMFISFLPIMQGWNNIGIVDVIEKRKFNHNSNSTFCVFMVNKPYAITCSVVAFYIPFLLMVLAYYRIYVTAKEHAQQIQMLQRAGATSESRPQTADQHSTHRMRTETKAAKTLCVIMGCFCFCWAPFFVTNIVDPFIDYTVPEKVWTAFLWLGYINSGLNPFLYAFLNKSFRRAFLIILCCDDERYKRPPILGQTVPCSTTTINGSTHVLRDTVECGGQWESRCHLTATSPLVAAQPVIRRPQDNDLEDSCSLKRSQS

D(4) dopamine receptor = biological target: T4, D(4) dopamine receptor (Homo sapiens, UniProt P21917)
T4 sequence (P21917 whole entry): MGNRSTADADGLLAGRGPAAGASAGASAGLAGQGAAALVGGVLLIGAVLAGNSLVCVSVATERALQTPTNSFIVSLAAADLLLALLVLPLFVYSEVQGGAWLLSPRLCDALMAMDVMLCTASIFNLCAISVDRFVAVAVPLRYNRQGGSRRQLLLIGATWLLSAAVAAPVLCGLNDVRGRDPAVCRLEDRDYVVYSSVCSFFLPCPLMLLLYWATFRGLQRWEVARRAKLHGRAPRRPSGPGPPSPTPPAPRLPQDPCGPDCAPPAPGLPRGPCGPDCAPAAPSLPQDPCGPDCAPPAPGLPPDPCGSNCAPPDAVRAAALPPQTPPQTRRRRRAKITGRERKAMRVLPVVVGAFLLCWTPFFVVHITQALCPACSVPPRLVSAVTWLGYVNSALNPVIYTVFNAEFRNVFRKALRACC

[9] = biological target: T5, 5-hydroxytryptamine receptor 1F (Homo sapiens, UniProt P30939)
T5 sequence (P30939 whole entry): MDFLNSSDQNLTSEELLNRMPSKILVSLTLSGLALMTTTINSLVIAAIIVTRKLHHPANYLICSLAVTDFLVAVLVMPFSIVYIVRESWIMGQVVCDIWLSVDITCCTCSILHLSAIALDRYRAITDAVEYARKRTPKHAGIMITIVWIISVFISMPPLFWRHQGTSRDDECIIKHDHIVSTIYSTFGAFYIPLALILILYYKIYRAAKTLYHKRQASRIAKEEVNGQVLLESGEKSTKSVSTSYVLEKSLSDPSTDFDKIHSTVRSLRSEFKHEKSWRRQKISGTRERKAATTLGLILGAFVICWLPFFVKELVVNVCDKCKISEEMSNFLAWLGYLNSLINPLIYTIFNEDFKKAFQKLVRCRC

[10] = biological target: Beta-1 adrenergic receptor (Homo sapiens, UniProt P08588)
Beta-1 adrenergic receptor, sequence (P08588 whole entry): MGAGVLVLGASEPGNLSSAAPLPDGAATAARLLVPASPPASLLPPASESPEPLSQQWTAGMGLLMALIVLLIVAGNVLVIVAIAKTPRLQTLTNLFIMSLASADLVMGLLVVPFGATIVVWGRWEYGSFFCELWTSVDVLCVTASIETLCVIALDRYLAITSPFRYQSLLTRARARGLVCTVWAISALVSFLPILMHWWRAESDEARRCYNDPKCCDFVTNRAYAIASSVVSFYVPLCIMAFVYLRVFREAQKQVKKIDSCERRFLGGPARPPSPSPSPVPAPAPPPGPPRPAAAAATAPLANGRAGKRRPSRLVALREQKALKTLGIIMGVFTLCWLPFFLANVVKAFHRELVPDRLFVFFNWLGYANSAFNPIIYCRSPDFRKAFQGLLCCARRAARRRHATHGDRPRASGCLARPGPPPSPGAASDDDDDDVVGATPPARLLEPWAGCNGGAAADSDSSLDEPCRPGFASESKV

D(1A) dopamine receptor = D(1A) dopamine receptor (Homo sapiens, UniProt P21728)
D(1A) dopamine receptor, sequence (P21728 whole entry): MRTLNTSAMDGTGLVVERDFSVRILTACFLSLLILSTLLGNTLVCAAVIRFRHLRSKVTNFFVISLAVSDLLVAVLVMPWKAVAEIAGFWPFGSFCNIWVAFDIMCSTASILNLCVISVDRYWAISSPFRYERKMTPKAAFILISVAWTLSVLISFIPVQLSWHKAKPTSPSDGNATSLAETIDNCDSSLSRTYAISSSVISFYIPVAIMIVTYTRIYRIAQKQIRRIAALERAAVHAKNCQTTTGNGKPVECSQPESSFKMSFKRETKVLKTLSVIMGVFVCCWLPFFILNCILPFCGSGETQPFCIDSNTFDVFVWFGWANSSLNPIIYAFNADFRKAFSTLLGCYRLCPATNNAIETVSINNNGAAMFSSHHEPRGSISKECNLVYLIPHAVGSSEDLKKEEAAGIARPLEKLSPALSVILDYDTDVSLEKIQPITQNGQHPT

[11] = biological target: 5-hydroxytryptamine receptor 7 (Rattus norvegicus, UniProt P32305)
5-hydroxytryptamine receptor 7 (Rattus norvegicus, UniProt P32305), sequence (P32305 whole entry): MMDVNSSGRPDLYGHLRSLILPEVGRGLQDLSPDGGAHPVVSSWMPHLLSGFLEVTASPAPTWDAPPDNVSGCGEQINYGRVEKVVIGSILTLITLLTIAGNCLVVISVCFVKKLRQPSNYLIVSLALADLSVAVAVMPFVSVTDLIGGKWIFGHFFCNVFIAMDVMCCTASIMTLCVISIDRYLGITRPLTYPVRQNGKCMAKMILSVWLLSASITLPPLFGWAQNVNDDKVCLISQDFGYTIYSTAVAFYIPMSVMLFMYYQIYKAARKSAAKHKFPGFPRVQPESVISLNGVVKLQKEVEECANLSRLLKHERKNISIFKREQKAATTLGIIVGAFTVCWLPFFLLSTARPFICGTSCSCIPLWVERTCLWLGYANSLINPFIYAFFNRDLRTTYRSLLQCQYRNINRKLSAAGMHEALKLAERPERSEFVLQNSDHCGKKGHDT

[12] = biological target: 5-hydroxytryptamine receptor 1B (Homo sapiens, UniProt P28222)
5-hydroxytryptamine receptor 1B, sequence (P28222 whole entry): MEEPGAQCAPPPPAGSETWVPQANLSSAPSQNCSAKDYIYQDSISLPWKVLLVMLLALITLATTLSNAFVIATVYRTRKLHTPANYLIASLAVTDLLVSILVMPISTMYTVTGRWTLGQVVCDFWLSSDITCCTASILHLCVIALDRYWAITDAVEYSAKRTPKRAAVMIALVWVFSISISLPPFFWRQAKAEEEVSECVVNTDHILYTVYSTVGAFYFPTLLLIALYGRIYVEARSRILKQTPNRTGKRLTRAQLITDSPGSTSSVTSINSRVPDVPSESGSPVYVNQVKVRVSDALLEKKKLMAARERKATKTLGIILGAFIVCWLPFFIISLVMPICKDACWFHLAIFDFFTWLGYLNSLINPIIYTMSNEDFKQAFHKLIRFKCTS

[13] = biological target: T6, Solute carrier family 22 member 1 (Rattus norvegicus, UniProt Q63089)
T6 sequence (Q63089 whole entry): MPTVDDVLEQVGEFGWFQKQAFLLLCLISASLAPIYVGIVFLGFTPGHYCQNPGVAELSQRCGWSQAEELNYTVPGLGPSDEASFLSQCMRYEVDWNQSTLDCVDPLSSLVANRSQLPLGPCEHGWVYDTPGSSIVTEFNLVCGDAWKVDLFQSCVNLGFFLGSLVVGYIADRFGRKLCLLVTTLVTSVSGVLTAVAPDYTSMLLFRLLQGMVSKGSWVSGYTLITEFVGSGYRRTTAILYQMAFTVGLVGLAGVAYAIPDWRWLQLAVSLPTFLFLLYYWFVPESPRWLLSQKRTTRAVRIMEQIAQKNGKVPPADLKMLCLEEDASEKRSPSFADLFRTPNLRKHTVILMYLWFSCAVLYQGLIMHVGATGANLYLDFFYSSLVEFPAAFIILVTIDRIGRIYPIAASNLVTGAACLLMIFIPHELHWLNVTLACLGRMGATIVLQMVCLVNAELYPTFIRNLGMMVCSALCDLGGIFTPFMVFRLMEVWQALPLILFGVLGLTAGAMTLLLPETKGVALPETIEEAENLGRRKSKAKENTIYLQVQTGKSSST

[14] = biological target: T7, 5-hydroxytryptamine receptor 2C (Homo sapiens, UniProt P28335)
T7 sequence (P28335 whole entry): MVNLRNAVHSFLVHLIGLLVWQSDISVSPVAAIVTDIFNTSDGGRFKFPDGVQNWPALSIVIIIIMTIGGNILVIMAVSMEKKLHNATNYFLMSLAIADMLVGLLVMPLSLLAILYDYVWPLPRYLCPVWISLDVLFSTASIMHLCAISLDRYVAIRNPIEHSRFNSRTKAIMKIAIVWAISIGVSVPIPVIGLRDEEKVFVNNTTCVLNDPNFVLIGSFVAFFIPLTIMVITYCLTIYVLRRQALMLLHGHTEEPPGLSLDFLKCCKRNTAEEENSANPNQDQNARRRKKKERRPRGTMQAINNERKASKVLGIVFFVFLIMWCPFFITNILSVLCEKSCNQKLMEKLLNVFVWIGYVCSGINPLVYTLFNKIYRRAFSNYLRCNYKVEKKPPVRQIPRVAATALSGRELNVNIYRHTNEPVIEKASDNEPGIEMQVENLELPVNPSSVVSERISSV

[15] = biological target: 5-hydroxytryptamine receptor 1D (Homo sapiens, UniProt P28221)
5-hydroxytryptamine receptor 1D, sequence (P28221 whole entry): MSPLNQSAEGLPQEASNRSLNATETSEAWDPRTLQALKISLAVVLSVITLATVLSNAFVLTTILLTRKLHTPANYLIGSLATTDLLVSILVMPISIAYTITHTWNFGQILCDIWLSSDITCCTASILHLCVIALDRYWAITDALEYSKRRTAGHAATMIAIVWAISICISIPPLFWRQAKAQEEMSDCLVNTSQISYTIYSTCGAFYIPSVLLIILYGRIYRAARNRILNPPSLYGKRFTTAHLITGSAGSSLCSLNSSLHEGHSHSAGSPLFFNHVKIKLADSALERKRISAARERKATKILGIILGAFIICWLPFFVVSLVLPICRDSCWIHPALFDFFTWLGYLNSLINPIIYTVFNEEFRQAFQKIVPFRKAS

How did the Ki [1] turn out when `CC(N)Cc1c[nH]c2ccc(OCc3cccs3)cc12` (centres undefined) [NSC_5311036] was run?
Its Ki is 0.126 µM.

And the Ki [2]?
Its Ki is 3.16 µM.

And the Ki (D(2) dopamine receptor)?
The Ki was greater than 10 µM.

And the Ki (Histamine H2 receptor)?
The Ki was greater than 10 µM.

What about the Ki [3] of the same compound?
The Ki was greater than 10 µM.

And the Ki [4]?
The Ki was 0.316 µM.

And the Ki [5]?
Its Ki is 0.251 µM.

And the Ki [6]?
The Ki was greater than 10 µM.

And the Ki [7]?
The Ki was 3.16 µM.

What about the Ki [8] of the same compound?
The Ki was greater than 10 µM.

What about the Ki (D(4) dopamine receptor) of the same compound?
Its Ki is greater than 10 µM.

What about the Ki [9] of the same compound?
Its Ki is 7.94 µM.

What about the Ki [10] of the same compound?
Its Ki is greater than 10 µM.

What about the Ki (D(1A) dopamine receptor) of the same compound?
The Ki was greater than 10 µM.

What about the Ki [11] of the same compound?
The Ki was 1 µM.

What about the Ki [12] of the same compound?
The Ki was 0.126 µM.

And the Ki [13]?
The Ki was greater than 10 µM.

What about the Ki [14] of the same compound?
The Ki was 0.501 µM.

And the Ki [15]?
Its Ki is 0.631 µM.
